Experimental data: publication PMC7686273 (Bioorganic & medicinal chemistry letters, 2020)

Target: rat mGlu7 (Rattus norvegicus, UniProt P35400)
Assay: calcium mobilization assay with rat mGlu7/Gα15/HEK cells
Type: cell-based
Conditions: not given

Chain of rat mGlu7 (P35400 35-915): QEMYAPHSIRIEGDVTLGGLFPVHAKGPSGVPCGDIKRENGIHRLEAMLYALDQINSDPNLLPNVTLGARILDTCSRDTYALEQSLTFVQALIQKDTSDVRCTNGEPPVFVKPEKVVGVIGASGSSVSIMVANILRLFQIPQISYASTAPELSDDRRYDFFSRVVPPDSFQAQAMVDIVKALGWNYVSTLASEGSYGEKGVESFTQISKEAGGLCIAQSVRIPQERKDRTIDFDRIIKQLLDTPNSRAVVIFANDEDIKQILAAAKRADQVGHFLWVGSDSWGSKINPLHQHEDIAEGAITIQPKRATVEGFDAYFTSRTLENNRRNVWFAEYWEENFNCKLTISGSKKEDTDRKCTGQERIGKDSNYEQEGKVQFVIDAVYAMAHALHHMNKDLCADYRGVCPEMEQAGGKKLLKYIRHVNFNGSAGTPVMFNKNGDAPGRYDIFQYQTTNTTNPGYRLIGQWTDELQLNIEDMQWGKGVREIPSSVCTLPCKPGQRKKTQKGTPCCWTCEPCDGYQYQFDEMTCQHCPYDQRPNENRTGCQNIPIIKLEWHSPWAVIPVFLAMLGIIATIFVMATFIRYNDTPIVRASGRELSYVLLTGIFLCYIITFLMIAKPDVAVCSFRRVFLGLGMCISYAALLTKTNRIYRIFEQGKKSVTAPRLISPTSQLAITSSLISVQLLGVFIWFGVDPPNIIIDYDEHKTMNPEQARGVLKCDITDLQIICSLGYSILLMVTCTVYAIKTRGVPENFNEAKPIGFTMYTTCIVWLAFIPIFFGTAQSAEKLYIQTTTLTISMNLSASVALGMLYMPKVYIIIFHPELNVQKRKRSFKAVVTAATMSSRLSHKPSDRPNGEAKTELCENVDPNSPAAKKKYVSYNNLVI

SMILES	mGlu7 NAM activity in words	fold loss of mGlu7 NAM potency relative to 8
CCOC(=O)c1cnc2c(OC)cccc2c1N1CCN(c2ccccc2C#N)CC1 [11f]	lost activity	–
CCOC(=O)c1cnc2c(OC)cccc2c1N1CCN(c2ccc(OC)cc2OC)CC1 [11i]	retained mGlu7 NAM potency	–
CCOC(=O)c1cnccc1N1CCN(c2ccccc2OC)CC1 [13a]	–	~ 6.5 fold
CCOC(=O)c1cnc2c(OC)cccc2c1N1CCN(c2ccccc2OC)C(C)C1 (stereo not drawn) [14a]	–	~ 2 fold
CCOC(=O)c1cnc2c(OC)cccc2c1N1CCN(c2c(OC)cccc2OC)CC1 [11j]	retained mGlu7 NAM potency	–
CCOC(=O)c1cnc2c(OC)cccc2c1N1CCN(c2ccccc2Cl)CC1 [11d]	lost activity	–
CCOC(=O)c1cnc2c(OC)cccc2c1N1CCN(c2ccccc2C)CC1 [11e]	lost activity	–
CCOC(=O)c1cnc2sccc2c1N1CCN(c2ccccc2OC)CC1 [13c]	–	~ 6.5 fold
CCOC(=O)c1cnc2c(OC)cccc2c1N1CCN(c2ccccc2F)CC1 [11h]	lost activity	–
CCOC(=O)c1cnc2c(OC)cccc2c1C1CC2CC(C1)N2c1ccccc1OC (stereo not drawn) [14g]	inactive	–
CCOC(=O)c1cnc2c(OC)cccc2c1N1CCN(c2ccccc2OC)CC1C (stereo not drawn) [14b]	–	~ 2 fold
CCOC(=O)c1cnc2c(OC)cccc2c1C1C2CC1CN(c1ccccc1OC)C2 (stereo not drawn) [14f]	inactive	–
CCOC(=O)c1cnc2c(OC)cccc2c1N1CC2(CN(c3ccccc3OC)C2)C1 [14i]	not productive	–
CCOC(=O)c1cnc2c(OC)cccc2c1N1CCN(c2cccnc2OC)CC1 [11l]	modest potency	–
CCOC(=O)c1cnc2ccsc2c1N1CCN(c2ccccc2OC)CC1 [13b]	–	~ 6.5 fold
CCOC(=O)c1cnc2c(OC)cccc2c1N(C)CCN(C)c1ccccc1OC [14c]	–	~ 6 fold
CCOC(=O)c1cnc2c(OC)cccc2c1-c1ccn(Cc2ccccc2OC)c1 [15j]	competent surrogate	–
CCOC(=O)c1ccc2c(OC)cccc2c1N1CCN(c2ccccc2OC)CC1 [13d]	inactive	–
CCOC(=O)c1cnc2c(OC)cc(OC)cc2c1-c1ccc(-c2ccccc2OC)nc1 [compound 18]	sub-micromolar	–
CCOC(=O)c1cnc2c(OC)cc(OC)cc2c1-c1ccc(-c2ccccc2OCC)nc1 [compound 19]	sub-micromolar	–
CCOC(=O)c1cnc2c(OC)cc(OC)cc2c1N1CCN(c2ccccc2OC)CC1 [13f]	equipotent to 8	–
CCOC(=O)c1cnc2c(OC)cccc2c1N1CCN(c2nccnc2OC)CC1 [11m]	modest potency	–

Tested on: not listed separately
Assay: stability under cell-based assay conditions
Type: physicochemical
Conditions: cell buffer

SMILES	stability of the ester under cell-based assay conditions
CCOC(=O)c1cnc2c(OC)cccc2c1N1CCN(c2ccccc2OC)CC1 [compound 8]	stable

Tested on: not listed separately
Assay: clearance in vivo
Conditions: plasma

SMILES	clearance
CCOC(=O)c1cnc2c(OC)cccc2c1-c1cnc(-c2ccccc2OC)c(OC)c1 [15h]	4.2 L/h/kg
